Key:
Activated CDC42 kinase 1 = Activated CDC42 kinase 1 (Homo sapiens, UniProt Q07912); test: Selectivity interaction (KinomeScan (DiscoverX)) EUB0000229b TNK2; details: at 10 µM
[1] = target: T1, Activin receptor type-1B (Homo sapiens) (UniProt P36896); test: Selectivity interaction (ProQinase) EUB0000171b ACVR1B
T1 sequence (whole entry): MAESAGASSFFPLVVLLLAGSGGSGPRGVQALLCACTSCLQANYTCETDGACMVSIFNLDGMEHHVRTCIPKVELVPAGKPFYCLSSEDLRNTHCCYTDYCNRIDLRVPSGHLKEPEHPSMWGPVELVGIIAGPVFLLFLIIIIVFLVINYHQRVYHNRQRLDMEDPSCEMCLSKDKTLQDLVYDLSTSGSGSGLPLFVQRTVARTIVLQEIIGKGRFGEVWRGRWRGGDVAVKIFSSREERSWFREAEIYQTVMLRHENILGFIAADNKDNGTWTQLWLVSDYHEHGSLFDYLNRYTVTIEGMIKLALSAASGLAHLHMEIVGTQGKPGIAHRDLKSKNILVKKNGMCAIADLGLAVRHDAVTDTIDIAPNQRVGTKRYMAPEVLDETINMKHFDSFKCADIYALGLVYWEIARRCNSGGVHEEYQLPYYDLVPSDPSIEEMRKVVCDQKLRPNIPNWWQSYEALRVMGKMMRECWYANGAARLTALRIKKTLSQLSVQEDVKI

[2] = target: Serine/threonine-protein kinase N1 (Homo sapiens, UniProt Q16512); test: Selectivity interaction (KinomeScan (DiscoverX)) EUB0001079a PKN1; details: at 1 µM
Serine/threonine-protein kinase N1, sequence (Q16512 2-942 limits assumed): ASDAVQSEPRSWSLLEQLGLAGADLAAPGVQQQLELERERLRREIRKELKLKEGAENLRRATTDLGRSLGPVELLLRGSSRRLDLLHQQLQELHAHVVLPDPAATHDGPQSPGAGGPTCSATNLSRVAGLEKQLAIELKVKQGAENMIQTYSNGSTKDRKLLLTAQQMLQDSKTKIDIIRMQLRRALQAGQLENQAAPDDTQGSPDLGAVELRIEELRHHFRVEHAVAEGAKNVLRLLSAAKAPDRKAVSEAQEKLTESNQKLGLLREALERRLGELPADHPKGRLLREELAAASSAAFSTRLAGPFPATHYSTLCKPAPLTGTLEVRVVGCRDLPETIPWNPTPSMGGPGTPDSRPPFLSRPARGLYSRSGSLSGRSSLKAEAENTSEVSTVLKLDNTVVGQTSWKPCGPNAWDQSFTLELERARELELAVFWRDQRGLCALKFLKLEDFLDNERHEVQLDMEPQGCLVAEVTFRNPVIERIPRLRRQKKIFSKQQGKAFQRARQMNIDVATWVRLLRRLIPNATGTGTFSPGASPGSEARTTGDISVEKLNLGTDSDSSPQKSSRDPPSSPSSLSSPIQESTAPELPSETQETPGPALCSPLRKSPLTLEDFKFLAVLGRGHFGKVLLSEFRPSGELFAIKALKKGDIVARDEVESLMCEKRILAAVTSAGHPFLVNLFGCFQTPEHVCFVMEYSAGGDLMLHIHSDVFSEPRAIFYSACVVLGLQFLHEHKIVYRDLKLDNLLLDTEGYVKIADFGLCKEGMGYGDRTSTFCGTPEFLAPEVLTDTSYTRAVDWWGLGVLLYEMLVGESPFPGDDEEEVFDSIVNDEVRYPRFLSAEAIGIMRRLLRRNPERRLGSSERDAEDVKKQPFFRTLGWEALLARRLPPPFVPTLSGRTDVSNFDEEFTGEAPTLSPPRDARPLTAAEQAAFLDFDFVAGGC

[3] = target: T2, Tyrosine-protein kinase Lck (Homo sapiens, UniProt P06239); test: Selectivity interaction (KinomeScan (DiscoverX)) EUB0001079a LCK; details: at 1 µM
T2 sequence (P06239 2-509 limits assumed): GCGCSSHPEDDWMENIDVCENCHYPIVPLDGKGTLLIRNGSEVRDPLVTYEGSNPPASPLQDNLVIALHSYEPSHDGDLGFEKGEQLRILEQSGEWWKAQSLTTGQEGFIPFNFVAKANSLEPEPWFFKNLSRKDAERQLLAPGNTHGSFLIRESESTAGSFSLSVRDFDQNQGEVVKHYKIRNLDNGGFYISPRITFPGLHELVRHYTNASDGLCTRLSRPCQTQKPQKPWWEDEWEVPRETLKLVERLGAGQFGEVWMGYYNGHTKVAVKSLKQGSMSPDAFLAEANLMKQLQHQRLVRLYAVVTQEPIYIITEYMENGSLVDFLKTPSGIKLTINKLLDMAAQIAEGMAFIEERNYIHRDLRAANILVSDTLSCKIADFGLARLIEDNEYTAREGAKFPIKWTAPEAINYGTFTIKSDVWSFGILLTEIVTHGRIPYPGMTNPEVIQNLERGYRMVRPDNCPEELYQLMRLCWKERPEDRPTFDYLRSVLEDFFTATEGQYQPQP

[4] = target: T3, Dual specificity mitogen-activated protein kinase kinase 4 (Homo sapiens) (UniProt P45985); test: Selectivity interaction (Kinase panel (KiNativ target engagement assay in Jurkat cells)) EUB0001635a MAP2K4; format: cell-based; details: at 1 µM
T3 sequence (whole entry): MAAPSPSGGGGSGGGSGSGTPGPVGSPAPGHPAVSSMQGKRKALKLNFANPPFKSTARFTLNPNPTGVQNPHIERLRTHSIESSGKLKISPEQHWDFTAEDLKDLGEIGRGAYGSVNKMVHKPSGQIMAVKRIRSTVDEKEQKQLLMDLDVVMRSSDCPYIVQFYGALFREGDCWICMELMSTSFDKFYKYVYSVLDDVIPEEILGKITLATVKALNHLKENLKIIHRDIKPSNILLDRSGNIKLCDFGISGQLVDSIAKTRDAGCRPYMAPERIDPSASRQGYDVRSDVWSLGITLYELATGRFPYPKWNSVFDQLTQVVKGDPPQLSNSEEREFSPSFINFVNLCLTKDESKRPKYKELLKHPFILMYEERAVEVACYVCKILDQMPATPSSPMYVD

[5] = target: Serine/threonine-protein kinase 38-like (Homo sapiens) (UniProt Q9Y2H1); test: Selectivity interaction (KinomeScan (DiscoverX)) EUB0000666a STK38L; details: at 10 µM
[6] = target: T2, Tyrosine-protein kinase Lck; test: Selectivity interaction (Millipore kinase profiler) EUB0000124b LCK; details: at 10 µM
[7] = target: T4, Ephrin type-B receptor 3 (Homo sapiens) (UniProt P54753); details: at 10 µM
T4 sequence (whole entry): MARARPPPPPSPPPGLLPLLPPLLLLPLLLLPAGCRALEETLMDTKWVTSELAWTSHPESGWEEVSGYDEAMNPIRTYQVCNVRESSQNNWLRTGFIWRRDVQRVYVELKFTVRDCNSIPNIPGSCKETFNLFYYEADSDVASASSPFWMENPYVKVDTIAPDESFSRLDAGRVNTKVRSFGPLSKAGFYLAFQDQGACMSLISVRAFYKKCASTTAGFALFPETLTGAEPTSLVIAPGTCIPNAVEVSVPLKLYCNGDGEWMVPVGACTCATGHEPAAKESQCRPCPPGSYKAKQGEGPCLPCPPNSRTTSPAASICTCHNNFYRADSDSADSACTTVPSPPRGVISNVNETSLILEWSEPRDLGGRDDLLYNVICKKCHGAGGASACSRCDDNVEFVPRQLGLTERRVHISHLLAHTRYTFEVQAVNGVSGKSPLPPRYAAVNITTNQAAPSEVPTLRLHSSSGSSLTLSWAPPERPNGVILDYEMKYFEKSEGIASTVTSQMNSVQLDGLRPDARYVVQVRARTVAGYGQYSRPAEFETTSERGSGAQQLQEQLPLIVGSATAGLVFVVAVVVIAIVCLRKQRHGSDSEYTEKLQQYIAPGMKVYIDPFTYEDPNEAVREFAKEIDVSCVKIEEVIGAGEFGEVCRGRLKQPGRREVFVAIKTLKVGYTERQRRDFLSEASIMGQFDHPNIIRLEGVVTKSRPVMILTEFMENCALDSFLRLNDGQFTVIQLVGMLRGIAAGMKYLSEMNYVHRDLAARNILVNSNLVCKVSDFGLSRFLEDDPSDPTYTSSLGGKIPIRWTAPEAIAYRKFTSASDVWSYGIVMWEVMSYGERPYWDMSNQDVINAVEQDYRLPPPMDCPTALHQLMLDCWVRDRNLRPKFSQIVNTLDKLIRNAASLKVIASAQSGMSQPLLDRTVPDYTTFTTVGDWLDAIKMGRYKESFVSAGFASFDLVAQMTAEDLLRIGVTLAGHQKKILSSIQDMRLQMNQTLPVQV

[8] = target: Mitogen-activated protein kinase 9 (Homo sapiens, UniProt P45984); test: Selectivity interaction (Kinase panel (Z-LYTE Assay)) EUB0001632a MAPK9; details: at 10 µM
Mitogen-activated protein kinase 9, sequence (P45984 whole entry, looked up): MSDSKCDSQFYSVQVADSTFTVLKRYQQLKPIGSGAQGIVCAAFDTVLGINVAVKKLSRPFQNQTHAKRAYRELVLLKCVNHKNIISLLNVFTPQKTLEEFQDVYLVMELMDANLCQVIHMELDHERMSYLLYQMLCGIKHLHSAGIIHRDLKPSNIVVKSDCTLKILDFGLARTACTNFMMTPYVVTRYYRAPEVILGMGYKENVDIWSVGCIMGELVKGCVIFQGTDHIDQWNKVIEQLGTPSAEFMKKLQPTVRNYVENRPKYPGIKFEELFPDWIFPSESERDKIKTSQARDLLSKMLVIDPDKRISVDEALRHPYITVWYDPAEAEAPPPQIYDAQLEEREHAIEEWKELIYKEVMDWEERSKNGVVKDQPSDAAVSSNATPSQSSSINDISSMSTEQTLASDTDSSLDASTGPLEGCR

[9] = target: 5'-AMP-activated protein kinase catalytic subunit alpha-2 (Homo sapiens) (UniProt P54646); test: Selectivity interaction (ActivX KiNativ screen (kinase selectivity in THP-1 cell lysates)) EUB0000639a PRKAA2; format: subcellular; details: lysate, at 0.2 µM
5'-AMP-activated protein kinase catalytic subunit alpha-2 (Homo sapiens), sequence (P54646 whole entry, looked up): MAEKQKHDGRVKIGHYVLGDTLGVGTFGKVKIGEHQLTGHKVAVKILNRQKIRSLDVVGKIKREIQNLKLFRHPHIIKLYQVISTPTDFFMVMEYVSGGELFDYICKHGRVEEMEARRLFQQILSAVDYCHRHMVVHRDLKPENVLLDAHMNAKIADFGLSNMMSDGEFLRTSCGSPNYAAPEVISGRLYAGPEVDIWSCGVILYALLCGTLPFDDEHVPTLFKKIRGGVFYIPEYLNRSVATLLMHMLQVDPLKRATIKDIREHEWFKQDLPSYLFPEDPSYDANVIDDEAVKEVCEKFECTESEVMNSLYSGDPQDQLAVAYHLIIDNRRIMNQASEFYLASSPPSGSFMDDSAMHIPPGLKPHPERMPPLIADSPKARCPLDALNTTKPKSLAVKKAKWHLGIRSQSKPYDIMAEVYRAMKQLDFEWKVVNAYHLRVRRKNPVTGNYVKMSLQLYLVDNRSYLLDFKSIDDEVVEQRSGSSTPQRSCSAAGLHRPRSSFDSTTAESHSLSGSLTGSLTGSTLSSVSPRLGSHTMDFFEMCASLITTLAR

[10] = target: Cyclin-dependent kinase 16 (Homo sapiens) (UniProt Q00536); test: Selectivity interaction (ActivX KiNativ screen (kinase selectivity in THP-1 cell lysates)) EUB0000639a CDK16; format: subcellular; details: lysate, at 1 µM
[11] = target: Mitogen-activated protein kinase kinase kinase 9 (Homo sapiens) (UniProt P80192); test: Selectivity interaction (SelectScreen profiling (Invitrogen)) EUB0000607a MAP3K9; details: at 2 µM
[12] = target: Tyrosine-protein kinase Lyn (Homo sapiens, UniProt P07948); test: Selectivity interaction (KinomeScan (DiscoverX)) EUB0001049a LYN; details: at 1 µM
Tyrosine-protein kinase Lyn, sequence (P07948 2-512 limits assumed): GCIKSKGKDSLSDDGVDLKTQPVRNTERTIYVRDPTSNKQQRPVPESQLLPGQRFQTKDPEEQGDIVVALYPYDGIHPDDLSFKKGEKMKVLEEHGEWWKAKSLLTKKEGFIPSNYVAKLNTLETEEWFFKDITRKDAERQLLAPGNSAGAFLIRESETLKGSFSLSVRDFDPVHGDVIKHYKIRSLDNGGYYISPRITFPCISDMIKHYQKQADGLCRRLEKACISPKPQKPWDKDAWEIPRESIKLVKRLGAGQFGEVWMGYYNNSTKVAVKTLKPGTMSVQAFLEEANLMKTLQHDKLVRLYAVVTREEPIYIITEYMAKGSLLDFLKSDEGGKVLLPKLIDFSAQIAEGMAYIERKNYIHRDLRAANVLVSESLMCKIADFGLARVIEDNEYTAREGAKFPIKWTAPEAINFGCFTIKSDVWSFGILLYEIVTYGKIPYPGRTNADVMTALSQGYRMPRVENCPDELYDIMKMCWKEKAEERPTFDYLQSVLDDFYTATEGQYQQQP

[13] = target: Ephrin type-A receptor 5 (Homo sapiens) (UniProt P54756); test: Selectivity interaction (KinomeScan (DiscoverX)) EUB0000595a EPHA5; details: at 10 µM
Ephrin type-A receptor 5 (Homo sapiens), sequence (P54756 whole entry): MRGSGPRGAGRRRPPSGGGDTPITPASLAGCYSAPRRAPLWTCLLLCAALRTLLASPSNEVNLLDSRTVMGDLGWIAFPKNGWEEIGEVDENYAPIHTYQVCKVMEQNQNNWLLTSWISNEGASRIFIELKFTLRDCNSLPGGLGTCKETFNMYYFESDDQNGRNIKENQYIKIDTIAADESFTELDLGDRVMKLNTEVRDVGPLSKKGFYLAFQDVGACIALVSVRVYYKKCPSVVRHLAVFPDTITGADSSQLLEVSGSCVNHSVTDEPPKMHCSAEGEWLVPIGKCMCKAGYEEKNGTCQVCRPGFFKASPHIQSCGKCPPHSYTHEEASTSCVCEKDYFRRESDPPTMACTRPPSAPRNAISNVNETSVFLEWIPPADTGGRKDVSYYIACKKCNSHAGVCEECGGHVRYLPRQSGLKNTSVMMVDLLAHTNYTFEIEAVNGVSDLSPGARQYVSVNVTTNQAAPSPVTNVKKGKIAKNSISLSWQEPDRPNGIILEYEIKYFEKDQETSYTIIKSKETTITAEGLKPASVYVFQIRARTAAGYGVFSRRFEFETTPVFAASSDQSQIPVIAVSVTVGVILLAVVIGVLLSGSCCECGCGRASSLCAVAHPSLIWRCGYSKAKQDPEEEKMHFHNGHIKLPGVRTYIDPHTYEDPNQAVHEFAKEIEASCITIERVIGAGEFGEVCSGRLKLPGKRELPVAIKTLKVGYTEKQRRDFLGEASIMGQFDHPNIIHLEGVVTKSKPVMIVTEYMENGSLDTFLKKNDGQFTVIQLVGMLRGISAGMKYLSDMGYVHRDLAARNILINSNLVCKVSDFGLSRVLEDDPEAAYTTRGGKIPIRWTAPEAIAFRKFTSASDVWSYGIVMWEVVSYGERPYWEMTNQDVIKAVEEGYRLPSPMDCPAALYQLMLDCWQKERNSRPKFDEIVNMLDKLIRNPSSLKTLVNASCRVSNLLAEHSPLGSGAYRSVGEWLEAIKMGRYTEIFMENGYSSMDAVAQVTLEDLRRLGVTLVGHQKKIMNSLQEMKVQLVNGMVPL

[14] = target: T3, Dual specificity mitogen-activated protein kinase kinase 4 (Homo sapiens); test: Selectivity interaction (KinomeScan (DiscoverX)) EUB0000595a MAP2K4; details: at 10 µM
Focal adhesion kinase 1 = Focal adhesion kinase 1 (Homo sapiens, UniProt Q05397); test: Selectivity interaction (ActivX KiNativ screen (ex vivo kinase selectivity in human PBMCs)) EUB0001619a PTK2; format: cell-based; details: PBMC, at 1 µM
Focal adhesion kinase 1, sequence (Q05397 2-1052 limits assumed): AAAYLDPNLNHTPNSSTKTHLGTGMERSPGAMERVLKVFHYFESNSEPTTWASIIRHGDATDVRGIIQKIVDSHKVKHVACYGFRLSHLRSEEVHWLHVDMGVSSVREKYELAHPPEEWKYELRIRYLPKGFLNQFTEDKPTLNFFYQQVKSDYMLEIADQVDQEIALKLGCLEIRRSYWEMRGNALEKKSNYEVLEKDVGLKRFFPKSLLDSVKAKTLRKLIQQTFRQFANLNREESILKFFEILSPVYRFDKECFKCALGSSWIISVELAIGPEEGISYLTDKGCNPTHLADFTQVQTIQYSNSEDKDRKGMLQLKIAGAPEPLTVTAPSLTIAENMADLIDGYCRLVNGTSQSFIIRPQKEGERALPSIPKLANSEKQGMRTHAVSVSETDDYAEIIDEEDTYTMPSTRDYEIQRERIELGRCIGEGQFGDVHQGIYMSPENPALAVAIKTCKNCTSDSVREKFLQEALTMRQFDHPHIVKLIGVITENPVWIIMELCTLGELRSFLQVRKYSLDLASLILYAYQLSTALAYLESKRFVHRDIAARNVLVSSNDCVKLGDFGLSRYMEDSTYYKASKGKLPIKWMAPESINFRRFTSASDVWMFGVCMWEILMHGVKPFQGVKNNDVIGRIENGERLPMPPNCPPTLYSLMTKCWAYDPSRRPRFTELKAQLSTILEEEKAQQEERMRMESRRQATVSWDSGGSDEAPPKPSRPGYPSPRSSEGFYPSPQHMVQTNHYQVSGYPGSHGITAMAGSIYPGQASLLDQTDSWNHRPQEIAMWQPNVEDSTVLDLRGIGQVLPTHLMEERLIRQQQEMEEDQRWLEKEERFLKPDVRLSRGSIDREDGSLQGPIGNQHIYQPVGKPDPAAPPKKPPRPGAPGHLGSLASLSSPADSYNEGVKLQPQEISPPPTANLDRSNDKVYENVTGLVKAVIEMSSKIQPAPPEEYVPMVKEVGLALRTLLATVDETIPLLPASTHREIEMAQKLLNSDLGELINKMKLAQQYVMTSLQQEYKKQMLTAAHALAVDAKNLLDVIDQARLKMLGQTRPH

Question: With `COc1cc(N(C)c2ccnc3ccc(C(F)(F)F)cc23)cc(OC)c1OC` as the molecule, how does the % binding (Activated CDC42 kinase 1) read?
Answer: 89%

Question: How did the % of control ([1]; at 1 µM) turn out when `C=CC(=O)Nc1cccc(C(=O)Nc2ccc(Nc3cc(-c4[nH]c(SC)nc4C)ccn3)cc2)c1` was run?
Answer: 94%

Question: And the % of control ([1]; at 5 µM)?
Answer: 94%

Question: Which results are given for `Nc1cnc(N2CCc3cc(S(=O)(=O)Nc4c(F)cc(Cl)cc4F)cc(N4CCCC4=O)c32)nc1` [TP-020n]?
Answer: % of control [2]: 95%; % of control [3]: 100%

Question: For `C=CC(=O)Nc1ccc(C(=O)Nc2[nH]nc3c2CN(C(=O)N[C@H](CN(C)C)c2ccccc2)C3(C)C)cc1`, which % of engagement [4] is on record?
Answer: 3.9%

Question: Which % of control [5] does the source give for `O=C(NOC[C@H](O)CO)c1ccc(F)c(F)c1Nc1ccc(I)cc1F` here?
Answer: 100%

Question: With `CC(=O)Nc1cccc(-n2c(=O)n(C3CC3)c(=O)c3c(Nc4ccc(I)cc4F)n(C)c(=O)c(C)c32)c1` as the molecule, how does the % of control [6] read?
Answer: 110%

Question: `Cc1cc([C@@H](C)Nc2ccccc2C(=O)O)c2nc(N3CCOCC3)cc(=O)n2c1` [AZD-6482] was tested. Which % of control [7] did it give?
Answer: 100%

Question: With `Cn1cc(-n2cnc3c(NCc4nc5cc(Cl)c(Cl)cc5[nH]4)nc(N4CCOCC4)nc32)cn1` as the molecule, how does the % of control [8] read?
Answer: 5.25%

Question: Which results are given for `CC[C@@H]1[C@H](F)C(=O)N[C@@H]1COc1nccc2cc(C(N)=O)c(OC)cc12` [ZIMLOVISERTIB]?
Answer: % of inhibition [9]: -4.3%; % of inhibition [10]: 7.7%

Question: For `CNC(=O)Nc1ccc(-c2nc(N3CC4CCC(C3)O4)c3cnn(C4CCC5(CC4)OCCO5)c3n2)cc1`, which % of inhibition [11] is on record?
Answer: 11%

Question: With `COc1cc(Nc2nc(C)cc(-c3cnn4nc(OC)ccc34)n2)cc(C(F)(F)F)c1` as the molecule, how does the % of control [12] read?
Answer: 89%

Question: How did the % of control [13] turn out when `COCC(=O)NC/C=C/c1ccc2ncnc(Nc3ccc(Oc4ccc(C)nc4)c(C)c3)c2c1` [CP-724714] was run?
Answer: 100%

Question: And the % of control [14]?
Answer: 95%

Question: With `N#Cc1cccc(-c2c[nH]c3ncnc(N4CCOCC4)c23)c1` as the molecule, how does the % of inhibition (Focal adhesion kinase 1) read?
Answer: 11%
